Data taken from the supplement of paper PMC11061612.

What was measured:
Assay in all cases: combination Emax (second highest fraction inhibited in the dose matrix, 72 h); higher = more inhibition; extreme values may be limits of the assay
[1] = test system: BHT-101 (Thyroid Gland Carcinoma)
Summary of the method: (§1)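 Bliss excess equals the observed combination effect minus the expected value EA + EB − EA·EB, where EA and EB are the effects of each agent alone. Combination Emax is the second-highest inhibition within the matrix. Inhibition was scaled from CellTiter-Glo 2.0 luminescence, with 0 set by vehicle wells and 1 by blank wells, after 72 hours of two-drug dosing of cells plated in 1536-well plates.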

[2] = test system: BxPC-3 (Pancreatic Carcinoma)
Summary of the method: as §1

[3] = test system: CPC-N (Small Cell Lung Carcinoma)
Summary of the method: as §1

[4] = test system: DBTRG-05MG (Glioblastoma)
Summary of the method: as §1

ES6 (Ewing's Sarcoma) = test system: ES6 (Ewing's Sarcoma)
Summary of the method: as §1

[5] = test system: IA-LM (Non-Small Cell Lung Carcinoma)
Summary of the method: as §1

[6] = test system: LS-1034 (Colorectal Carcinoma)
Summary of the method: as §1

[7] = test system: MONO-MAC-6 (Acute Myeloid Leukemia)
Summary of the method: as §1

NCI-H2373 (Mesothelioma) = test system: NCI-H2373 (Mesothelioma)
Summary of the method: as §1

[8] = test system: NCI-H596 (Other Solid Carcinomas)
Summary of the method: as §1

[9] = test system: OAW-28 (Ovarian Carcinoma)
Summary of the method: as §1

[10] = test system: OVCAR-3 (Ovarian Carcinoma)
Summary of the method: as §1

[11] = test system: P32-ISH (Burkitt's Lymphoma)
Summary of the method: as §1

[12] = test system: SCC-4 (Oral Cavity Carcinoma)
Summary of the method: as §1

SK-N-SH (Neuroblastoma) = test system: SK-N-SH (Neuroblastoma)
Summary of the method: as §1

[13] = test system: SNU-407 (Colorectal Carcinoma)
Summary of the method: as §1

[14] = test system: SUP-M2 (T-Cell Non-Hodgkin's Lymphoma)
Summary of the method: as §1

T47D (Breast Carcinoma) = test system: T47D (Breast Carcinoma)
Summary of the method: as §1

[15] = test system: T84 (Colorectal Carcinoma)
Summary of the method: as §1

[16] = test system: TUR (Acute Myeloid Leukemia)
Summary of the method: as §1

| SMILES | combination Emax [1] | combination Emax [2] | combination Emax [3] | combination Emax [4] | combination Emax (ES6 (Ewing's Sarcoma)) | combination Emax [5] | combination Emax [6] | combination Emax [7] | combination Emax (NCI-H2373 (Mesothelioma)) | combination Emax [8] | combination Emax [9] | combination Emax [10] | combination Emax [11] | combination Emax [12] | combination Emax (SK-N-SH (Neuroblastoma)) | combination Emax [13] | combination Emax [14] | combination Emax (T47D (Breast Carcinoma)) | combination Emax [15] | combination Emax [16] |
| --- | --- | --- | --- | --- | --- | --- | --- | --- | --- | --- | --- | --- | --- | --- | --- | --- | --- | --- | --- | --- |
| CCc1c2c(nc3ccc(O)cc13)-c1cc3c(c(=O)n1C2)COC(=O)[C@]3(O)CC [SN-38] + CN(C)CCCOc1ccc(-c2ccc3ncc4c(c3c2)n(C2CCOCC2)c(=O)n4C)cn1 [AZD0156] (first compound max 0.3 µM, 7x7, partner max 1 µM) | 0.774 | 0.523 | 0.549 | 0.412 | 0.603 | 0.882 | 0.814 | 1 | 0.726 | 0.348 | 0.791 | 0.449 | 1 | 0.839 | 0.909 | 0.416 | 1 | 0.643 | 0.644 | 0.982 |
| C[C@@H](c1ccc2nccn2c1)n1nnc2ncc(-c3cnn(C)c3)nc21 [Savolitinib] + CC1(C)CCC(CN2CCN(c3ccc(C(=O)NS(=O)(=O)c4ccc(NCC5CCOCC5)c([N+](=O)[O-])c4)c(Oc4cnc5[nH]ccc5c4)c3)CC2)=C(c2ccc(Cl)cc2)C1 [Venetoclax] (first compound max 1 µM, 7x7, partner max 1 µM) | 0.14 | 0.216 | 0.203 | 0.117 | 0.179 | 0.197 | 0.0816 | 0.213 | 0.138 | 0.229 | 0.163 | 0.0969 | 0.0681 | 0.101 | 0.32 | 0.231 | 0.182 | 0.153 | 0.0875 | 0.0127 |
| C[C@@H](c1ccc2nccn2c1)n1nnc2ncc(-c3cnn(C)c3)nc21 [Savolitinib] + Cc1c2c(nn1C)CSCc1cc(n(C)n1)CSc1cc(c3ccccc3c1)OCCCc1c(C(=O)O)n(C)c3c-2c(Cl)ccc13 [AZD5991] (first compound max 1 µM, 7x7, partner max 1 µM) | 0.133 | 0.136 | 0.263 | 0.0768 | 0.174 | 0.268 | 0.128 | 0.997 | 0.133 | 0.197 | 0.142 | 0.195 | 1 | 0.183 | 0.267 | 0.666 | 1 | 0.23 | 0.103 | 0.347 |
| Cn1cnc2c(F)c(Nc3ccc(Br)cc3Cl)c(C(=O)NOCCO)cc21 [Selumetinib] + C=CCn1c(=O)c2cnc(Nc3ccc(N4CCN(C)CC4)cc3)nc2n1-c1cccc(C(C)(C)O)n1 [AZD1775] (first compound max 10 µM, partner max 1 µM) | 0.828 | 0.557 | 0.748 | 0.395 | 0.233 | 0.296 | 0.747 | 0.743 | 0.342 | 0.223 | 0.395 | 0.626 | 0.999 | 0.452 | 0.381 | 0.722 | 0.996 | 0.34 | 0.401 | 0.764 |
| Cn1cnc2c(F)c(Nc3ccc(Br)cc3Cl)c(C(=O)NOCCO)cc21 [Selumetinib] + CC(C)n1c(=O)n(C)c2cnc3cc(F)c(-c4ccc(OCCCN5CCCCC5)nc4)cc3c21 [AZD1390] (first compound max 10 µM, 7x7, partner max 0.3 µM) | 0.791 | 0.4 | 0.0753 | 0.315 | 0.147 | 0.244 | 0.689 | 0.231 | 0.298 | 0.21 | 0.332 | 0.048 | 0.101 | 0.278 | 0.146 | 0.507 | 0.168 | 0.109 | 0.397 | 0.272 |
| Cn1cnc2c(F)c(Nc3ccc(Br)cc3Cl)c(C(=O)NOCCO)cc21 [Selumetinib] + CCN(CCO)CCCOc1ccc2c(Nc3cc(CC(=O)Nc4cccc(F)c4)[nH]n3)ncnc2c1 [AZD2811] (first compound max 10 µM, 7x7, partner max 1 µM) | 0.846 | 0.407 | 0.717 | 0.282 | 0.15 | 0.28 | 0.671 | 0.703 | 0.284 | 0.23 | 0.408 | 0.182 | 0.867 | 0.415 | 0.289 | 0.726 | 0.998 | 0.29 | 0.312 | 0.349 |
| Cn1cnc2c(F)c(Nc3ccc(Br)cc3Cl)c(C(=O)NOCCO)cc21 [Selumetinib] + C[C@@H]1COCCN1C2=NC(=NC(=C2)C3(CC3)[S@](=N)(=O)C)C4=C5C=CNC5=NC=C4 [AZD6738] (first compound max 10 µM, 7x7, partner max 10 µM) | 0.883 | 0.494 | 0.824 | 0.358 | 0.367 | 0.287 | 0.811 | 0.931 | 0.463 | 0.36 | 0.598 | 0.4 | 0.918 | 0.502 | 0.769 | 0.758 | 1 | 0.158 | 0.667 | 0.934 |
